Source: US20240197815A1, “METHODS AND COMPOSITIONS FOR IMPROVING VISUAL FUNCTION IN OCULAR DISEASES AND DISORDERS” (ONL Therapeutics, Inc., priority 2021, published 2024)
Several values for one entry are separate records, joined by “and”; a condition that tells them apart may be missing. Equal entries are not always repeated. Ends that are not written are not given here.

Columns and labels:
Format in all cases: in vivo, human
[1] = test system: patients with retinal detachment; experiment: Clinical study in retinal detachment patients: BCVA after single intravitreal injection followed by vitrectomy; conditions: for summary statistics for all patients, mean (of the BCVA logMAR values of Table 2): all doses 25-200 ug; for BCVA logMAR study eye / BCVA Snellen study eye: individual patients
Description: (§1) The primary objective was to determine the Maximum Tolerated Dose (MTD) of a peptide an amino acid sequence […] and the structure of Formula III (ONL1204) and select doses for further clinical studies. During the study, ocular fluid samples were also collected at the time of study drug injection and at the time of vitrectomy. These samples were used for pharmacokinetic and pharmacodynamic analyses.
(§2) Patients were enrolled in ascending dose groups. […] Safety visits were conducted one day post-injection and as deemed necessary by the examining Investigator (at least 1 visit every 3 days) until Visit 3. At Visit 3 (3+ days post-injection, in accordance with standard of care) patients underwent surgical repair of their retinal detachment with vitrectomy (with or without scleral buckling) and gas or oil tamponade. At the time of surgery, an undiluted vitreous sample was collected for pharmacokinetic and pharmacodynamics analyses, and an aqueous sample was collected for pharmacodynamic analysis. Additional safety visits were targeted for and generally conducted one day post-surgery, 7 days (±3 days) post-surgery, 14 (+4 days) days post-surgery, and Weeks 6, 9, 12 (±7 days each), and Week 24 (+14 days; study exit).
Therefore, a volume of 0.05 or 0.1 mL was injected into the study eye. Patient participation was approximately 24 weeks (6 months): a single injection treatment and 24 weeks of follow-up.

[2] = test system: patients having macular degeneration characterized by geographic atrophy (GA); experiment: Clinical study in GA patients: best corrected visual acuity (BCVA) after single intravitreal injection; conditions: all patients receiving 25 ug and 50 ug, compared to baseline BCVA
[3] = test system: patients with retinal detachment; experiment: Clinical study in retinal detachment patients: safety, adverse event reporting
Description: as §1, §2
Planned determinations of dose limiting toxicity included consideration of the following events: • 1.

IL1RA = experiment: Change in cytokine level in ocular fluid samples from administration to surgery
Description: as §1, §2

ICAM1 = experiment: as above
Description: as §1, §2

IL18 = experiment: as above
Description: as §1, §2

MCP1 = experiment: as above
Description: as §1, §2

[4] = 8 patients, 25 ug and 50 ug cohorts
[5] = dose 25 ug (Table 1), individual patients
[6] = dose 50 ug (Table 1), individual patients
[7] = dose 100 ug (Table 1), individual patients
[8] = dose 200 ug (Table 1), individual patient

## HHIYLGAVNYIY-NH2 [ONL1204]
[1]; Week 6, n 14
  summary statistics for all patients, mean (of the BCVA logMAR values of Table 2): 0.65
[1]; Week 9, n 13
  summary statistics for all patients, mean (of the BCVA logMAR values of Table 2): 0.78
[1]; Week 24, n 13
  summary statistics for all patients, mean (of the BCVA logMAR values of Table 2): 0.56
[1]; all patients receiving ONL1204, also with greater than 10 days of central vision loss, 3 to 7 days from administration to surgery, range of detachment heights and extents
  visual outcomes: improved visual outcomes were observed for all patients
[1]; retinal detachment, all patients receiving 25 ug and 50 ug, intravitreal injection then surgery
  visual outcomes (e.g., visual acuity): improvement in visual outcomes
[1]; week 6, dose 25 ug (Table 1)
  BCVA logMAR study eye: 0.34 logMAR and 0.18 logMAR and 0.82 logMAR (2×)
[1]; week 6, dose 25 ug
  BCVA Snellen study eye: 20/40 and 20/32 and 20/125 (2×)
[1]; week 6, dose 50 ug (Table 1)
  BCVA logMAR study eye: 0.46 logMAR and 0.38 logMAR (2×) and 0.52 logMAR
[1]; week 6, dose 50 ug
  BCVA Snellen study eye: 20/50 (2×) and 20/80
[1]; week 6, dose 100 ug (Table 1)
  BCVA logMAR study eye: 0.8 logMAR and 0.7 logMAR and 1 logMAR and 1.6 logMAR
[1]; week 6, dose 100 ug
  BCVA Snellen study eye: 20/125 and 20/100 and 20/200 and 20/800
[1]; week 6, dose 200 ug (Table 1)
  BCVA logMAR study eye: 0.4 logMAR and 0.7 logMAR
[1]; week 6, dose 200 ug
  BCVA Snellen study eye: 20/50 and 20/100
[1]; week 9, dose 25 ug (Table 1)
  BCVA logMAR study eye: 0.14 logMAR and 0.12 logMAR and 0.64 logMAR and 0.78 logMAR
[1]; week 9, dose 25 ug
  BCVA Snellen study eye: 20/25 (2×) and 20/100 and 20/125
[1]; week 9, dose 50 ug (Table 1)
  BCVA logMAR study eye: 0.6 logMAR and 0.56 logMAR and 0.34 logMAR
[1]; week 9, dose 50 ug
  BCVA Snellen study eye: 20/80 (2×) and 20/50
[1]; week 9, dose 100 ug, HM = hand motion
  BCVA Snellen study eye: 20/200 and 20/80 and 20/400
[1]; week 9, dose 200 ug (Table 1)
  BCVA logMAR study eye: 0.36 logMAR and 0.6 logMAR
[1]; week 9, dose 200 ug
  BCVA Snellen study eye: 20/40 and 20/80
[1]; week 24, dose 25 ug (Table 1)
  BCVA logMAR study eye: 0.5 logMAR and 0.2 logMAR and 0.68 logMAR and 0.7 logMAR
[1]; week 24, dose 25 ug
  BCVA Snellen study eye: 20/60 and 20/32 and 20/100 (2×)
[1]; week 24, dose 50 ug (Table 1)
  BCVA logMAR study eye: 0.76 logMAR and 0.2 logMAR and 0.64 logMAR and 0.34 logMAR
[1]; week 24, dose 50 ug
  BCVA Snellen study eye: 20/125 and 20/32 and 20/80 and 20/50
[1]; week 24, dose 100 ug (Table 1)
  BCVA logMAR study eye: 0.5 logMAR and 0.7 logMAR and 1.3 logMAR and 0.6 logMAR
[1]; week 24, dose 100 ug
  BCVA Snellen study eye: 20/63 and 20/100 and 20/400 and 20/80
[1]; week 24, dose 200 ug (Table 1)
  BCVA logMAR study eye: 0.2 logMAR
[1]; week 24, dose 200 ug
  BCVA Snellen study eye: 20/32
[2]
  visual outcomes (e.g., visual acuity): improvement in visual outcomes
[3]; 4 patients receiving 25 ug and 4 patients receiving 50 ug
  patients experiencing adverse events: 7 out of 8
[3]; [4]
  severity and relatedness of adverse events: Most were mild, and study procedure or surgery related
  total adverse events: 20 adverse events
IL1RA; all patients of Table 7
  change in IL1RA level from ONL1204 administration to surgery, mean: mean decrease
IL1RA; [5]
  IL1RA Percent Change (%) from time of administering ONL1204 to surgery: −51.0% and −57.4% and −99.3%
IL1RA; [6]
  IL1RA Percent Change (%) from time of administering ONL1204 to surgery: −94.4% and −88.3% and −60.0%
IL1RA; [7]
  IL1RA Percent Change (%) from time of administering ONL1204 to surgery: 8.5% and −46.1% and −65.2%
IL1RA; [8]
  IL1RA Percent Change (%) from time of administering ONL1204 to surgery: −26.3%
ICAM1; all patients of Table 7
  change in ICAM level from ONL1204 administration to surgery, mean: mean decrease
ICAM1; [5]
  ICAM1 Percent Change (%) from time of administering ONL1204 to surgery: −82.4% and −42.7% and −86.2%
ICAM1; [6]
  ICAM1 Percent Change (%) from time of administering ONL1204 to surgery: −100% and 0% and 64.0%
ICAM1; [7]
  ICAM1 Percent Change (%) from time of administering ONL1204 to surgery: −43.9% and 24.9% and 22.7%
ICAM1; [8]
  ICAM1 Percent Change (%) from time of administering ONL1204 to surgery: 0%
IL18; all patients of Table 7
  change in IL18 level from ONL1204 administration to surgery, mean: mean decrease
IL18; [5]
  IL18 Percent Change (%) from time of administering ONL1204 to surgery: −60.5% and −22.5% and −50.8%
IL18; [6]
  IL18 Percent Change (%) from time of administering ONL1204 to surgery: −100% and 0% (2×)
IL18; [7]
  IL18 Percent Change (%) from time of administering ONL1204 to surgery: −33.7% and 0% and 66.0%
IL18; [8]
  IL18 Percent Change (%) from time of administering ONL1204 to surgery: 0%
MCP1; all patients of Table 7
  change in MCP1 level from ONL1204 administration to surgery, mean: mean decrease
MCP1; [5]
  MCP1 Percent Change (%) from time of administering ONL1204 to surgery: −41.4% and −6.02% and −35.9%
MCP1; [6]
  MCP1 Percent Change (%) from time of administering ONL1204 to surgery: −48.4% and 11.6% and −3.12%
MCP1; [7]
  MCP1 Percent Change (%) from time of administering ONL1204 to surgery: −9.5% and 78.5% and 500%
MCP1; [8]
  MCP1 Percent Change (%) from time of administering ONL1204 to surgery: −2.4%
